For `CCOC(=O)c1cnc(-c2ccccc2OCC2CC2)[nH]c1=O`, the melting point was 104 to 105 °C.
With `CC(C)N(C(=O)CN1C(=O)CC(=O)N(c2ccccc2)c2ccccc21)c1ccccc1` the melting point was 199 to 200 °C.
For `CC(C)(C)c1ccc(Cn2cc(C(=O)C(=O)O)c3cc(-c4ccc(Cl)cc4)ccc32)cc1`, the melting point was 183 to 184 °C.
Molecule `O=C(CCl)c1cccnn1` has a melting point of 104 to 106 °C.
`N#Cc1ccc(NC(=O)n2ccc3cc(Oc4cc(CC(N)=O)ncn4)ccc32)cc1C(F)(F)F` showed a melting point of 204 to 209 °C.
With `COC(=O)c1cccc(=O)n1C` the melting point was 56 to 57 °C.
In the case of `CCOC(=O)C(Cc1ccc(OC)cc1)c1cc2cc(C#N)ccc2s1` (centres undefined), the melting point is reported as 93 to 96 °C.
With `Cc1ccnc2c1nc(-c1cccnc1N)n2-c1ccc(CN)cc1` the melting point was 210 to 212 °C.
Work on `COc1ccc(C(=O)[C@H]2C[C@H]2C(=O)O)cc1` (relative stereo) yielded a melting point of 170 to 172 °C.
Molecule `CN(C)CCc1ccc(O)c2nc[nH]c12` has a melting point of 245 to 252 °C.
With `O=C1O[C@@H](c2ccc(F)cc2)[C@@H](Cc2ccc(C(F)(F)F)cc2)N1Cc1cccc2ccccc12` (racemic) the melting point was 136 to 137 °C.
With `CC1(C)COC(=O)C(C(=O)Nc2cccc(C(F)(F)F)c2)C1=O` (centres undefined) the melting point was over 200 °C.
In the case of `CCCc1nc(C)n2nc(N)nc2c1Cc1ccc(-c2ccccc2C#N)cc1`, the melting point is reported as 150 °C.
With `CNc1cn(-c2cncnc2)nc1Cl` the melting point was 111 to 114 °C.
`CN(C)C(=O)N[C@H]1CC[C@H](CCN2CCN(c3ccc(O)c(Cl)c3Cl)CC2)CC1` showed a melting point of 278 to 280 °C.
For `O=C1c2ccc(NC(=O)C3CCCCC3)cc2C(=O)c2cc(NC(=O)C3CCCCC3)ccc21`, the melting point was 269 °C.
With `Cc1c(C2CCCC2)c(=O)oc2cc(OCc3nnn[nH]3)cc(OCc3nnn[nH]3)c12` the melting point was 248 to 252 °C.
Molecule `Cc1nccn1-c1cc(C#N)cc(C(F)(F)F)c1` has a melting point of 132 to 134 °C.
In the case of `CS(=O)c1csc(C(=O)O)c1` (centres undefined), the melting point is reported as 188 to 190 °C.
Work on `CCCCCCCCCCCCC(C(=O)NO)S(=O)(=O)c1ccc(OC)cc1` (centres undefined) yielded a melting point of 114 °C.
For `Cc1nc(-c2cncc(F)c2)sc1N(C)C(=S)NC1CC1`, the melting point was 117 to 119 °C.
Work on `COc1nc(C)nc(NC(=O)NS(=O)(=O)c2ccccc2-c2cnn(C)c2)n1` yielded a melting point of 221 to 224 °C.
`CCCC(NC(=O)Nc1ccc(Cl)cc1)P(=O)(c1ccccc1)c1ccccc1` (centres undefined) showed a melting point of 275 to 278 °C.
`CC(C)Nc1cccnc1N1CCN(C(=O)c2ccc(C(=O)N(C)CC3OCCO3)cc2)CC1` showed a melting point of 102 to 104 °C.
With `CCCc1ncc(C(=O)OCC)c(NCc2ccc(-c3ccccc3-c3nnnn3C(c3ccccc3)(c3ccccc3)c3ccccc3)cc2)n1` the melting point was 132 to 133 °C.
With `CC(O)CSc1sc(-c2cc[nH]n2)c2c1C(=O)CC(C)(C)C2` (centres undefined) the melting point was 175 to 178 °C.
For `CCCCCCCCCCCCC(=O)CC(O)Cc1ccccc1` (centres undefined), the melting point was 40 to 43 °C.
`COC(c1ccccc1)C1CCCCCC(=Cc2ccccc2)C1=O` (centres undefined) gave a melting point of 136 to 139 °C.
`COc1cc2c(cc1OC)C(C(S)(C#N)c1ccccc1)=NCC2` (centres undefined) showed a melting point of 160 to 161 °C.
`CCCn1c(COCC)nc2c(N)nc3ccc(OCCCCCCNC(=O)C(C)C)cc3c21` showed a melting point of 136 to 138 °C.
`C#CC1(O)C=CC2C3CCC4=CC(=O)CC(OC(C)=O)C4C3CCC21CC` (centres undefined) gave a melting point of 123 to 126 °C.
For `Nc1nc2ccc(S(=O)(=O)n3c(CCCC(=O)O)cc4cc(Cl)ccc43)cc2o1`, the melting point was 220 °C.
With `O=CC=Cc1cn(Cc2cccc([N+](=O)[O-])c2)nn1` the melting point was 136 to 140 °C.
Molecule `CC1CCCC(C)C1NSc1nc2ccccc2s1` (centres undefined) has a melting point of 75 to 93 °C.
`O=C1c2ccccc2C=C(Cl)Cc2ccccc21` gave a melting point of 109 to 110 °C.
`N#Cc1cccc(C(CC(=O)c2ccc(F)cc2)CC(=O)c2ccc(F)cc2)c1` showed a melting point of 120 to 123 °C.
In the case of `Nc1cc(CCC(=O)CCc2ccc(O)c(N)c2)ccc1O`, the melting point is reported as 131 to 133 °C.
In the case of `CCc1cc(N)c([N+](=O)[O-])cc1CC`, the melting point is reported as 63 to 65 °C.
In the case of `COc1ccc(-c2ccc(NC(=O)C=Cc3ccc(CN4CCCC4)cc3)cc2)cc1`, the melting point is reported as 199 to 200 °C.
`COC(=O)Cc1oc2ccc(Cl)cc2c1-c1ccccc1C` gave a melting point of 135 to 136 °C.
In the case of `O=C(Nc1ccccc1C(=O)O)c1nnc(S)o1`, the melting point is reported as 236 to 237 °C.
In the case of `Brc1ccc(-c2ccc(I)cc2)cc1`, the melting point is reported as 177 to 179 °C.
For `O=[N+]([O-])c1cc(Cl)ncc1CCc1ccccc1`, the melting point was 76 to 78 °C.
Work on `CC(=O)N1CC(=O)NC(=Cc2ccc(OCc3ccccc3)cn2)C1=O` yielded a melting point of 189 to 191 °C.
Molecule `O=C(C=Cc1ccco1)NCCCCCC(=O)NO` has a melting point of 151 to 152 °C.
`CN(C)C(=O)c1cc2n(n1)-c1ccc(Cl)cc1C(c1ccccc1)=NC2` showed a melting point of 176 to 178 °C.
With `O=C1c2ccccc2C(=O)N1Cc1cccc(-c2nc(=O)c3ccccc3s2)n1` the melting point was 280 to 281 °C.
Work on `N#CN=C(N)c1cc2c(Oc3ccc(Cl)cc3)cncc2s1` yielded a melting point of 265 to 268 °C.
Work on `CC(C)c1cc(Cl)cc2c1OC(C(F)(F)F)C(C(=O)O)=C2` (centres undefined) yielded a melting point of 185 to 189 °C.
`Cn1ccc(C=C[N+](=O)[O-])c1` gave a melting point of 90 to 92 °C.
`CC(C)(C)c1ccc(C(=O)N[C@H]2CC[C@H](CCN3CCN(c4nccc5c4CCO5)CC3)CC2)cc1` gave a melting point of 186 °C.
For `CCOc1cccc2c1OC(C(F)(F)F)C(C(=O)O)=C2` (centres undefined), the melting point was 159 to 161 °C.
`C=CC(O)c1ccc([N+](=O)[O-])cc1` (centres undefined) gave a melting point of 55 °C.
Molecule `CCCn1c(=O)c2c(NC)n(C(=O)OC)nc2n(Cc2cccc(Cl)c2)c1=O` has a melting point of 164 to 166 °C.
`O=S(=O)(CC(O)(CCl)c1ccccc1)c1ccccc1` (centres undefined) gave a melting point of 110 °C.
For `O=C1NCCN1c1nc(-c2ccc(Br)cc2)cs1`, the melting point was 230 to 233 °C.
`Cc1nc(N2CCN(Cc3ccccc3)C2=O)sc1C(=O)NCc1cccc(F)c1` showed a melting point of 169 to 171 °C.
`N#Cc1c(C(F)(F)F)nn(-c2c(Cl)cc(S(=O)(=O)C(F)(F)F)cc2Cl)c1[N+](=O)[O-]` showed a melting point of 168 to 169 °C.
Molecule `NS(=O)(=O)c1cc2c(cc1Cl)NC(C1CCCCC1)NS2(=O)=O` (centres undefined) has a melting point of 274 to 276 °C.
Work on `CCCOC(=O)Cc1ccc2c(c1)C(=O)c1ccccc1CO2` yielded a melting point of 30 to 32 °C.
Molecule `CC(C)CCCC(C)C1CCC2C3CC=C4CC(OCCO)CCC4(C)C3CCC12C` (centres undefined) has a melting point of 92 to 95 °C.
`CNC(=O)N1CCN(C(=O)Cc2ccc(Cl)c(Cl)c2)C(CN2CCC(O)C2)C1` (centres undefined) gave a melting point of 57 °C.
`OCC#Cc1ccccn1` showed a melting point of 78 to 80 °C.
For `CC(CN1CC=C(c2ccc(Cl)cc2)CC1)C(O)c1ccc(Cl)cc1` (centres undefined), the melting point was 110 to 112 °C.
Work on `Cc1ccc2c(c1)oc1c(C(=O)NC3CCCCC3)nn(-c3ccc(Cl)cc3Cl)c12` yielded a melting point of 140 to 142 °C.
For `Cc1ccc(C(=O)CCCOC(=O)Nc2ccccc2)cc1`, the melting point was 106 to 109 °C.
`O=[N+]([O-])c1cccc(S(=O)(=O)NCC2CC2)c1` gave a melting point of 91 °C.
Molecule `CCOC(=O)c1sc2nc(-c3ccccc3)cnc2c1N` has a melting point of 173 to 175 °C.
Work on `COc1ccc2c(c1)c(-c1cc3c(OC)ncnc3[nH]1)cn2C` yielded a melting point of 184 °C.
With `O=Cc1cc(Cl)cc2c1OC(C(F)(F)F)C(C(=O)O)=C2` (centres undefined) the melting point was 243 to 252 °C.
With `CCN(CC)C(=O)[C@@H](C)[C@H]1CC[C@H]2[C@@H]3CCC4=CC(=O)CC[C@]4(C)[C@H]3CC[C@]12C` the melting point was 198 to 199 °C.
In the case of `CCCCc1nc(=O)c2cc(I)ccc2[nH]1`, the melting point is reported as 258 to 260 °C.
`CCn1c(Oc2cccc(NC(=O)N(C)C)c2)nnc1[C@@H](C)NS(=O)(=O)c1ccc(Cl)c(Cl)c1` showed a melting point of 158 to 159 °C.
`CCN(C(=O)n1nnc2cc(C)ccc21)c1ccccc1` gave a melting point of 42 to 43 °C.
`Cc1c(-c2ccccc2)oc2c(C(=O)OCC3CO3)cccc2c1=O` (centres undefined) showed a melting point of 103 to 105 °C.
With `CC(C)c1cccc(C(C)C)c1NC(=O)CN1CCN(CCSc2nc3cccc([N+](=O)[O-])c3o2)CC1` the melting point was 153 to 155 °C.
Work on `COCc1cnc2c(NC(=O)c3c(Cl)cccc3Cl)cccc2c1Cn1ccnc1` yielded a melting point of 190 to 191 °C.
Work on `CCCCc1noc(-c2ccc(C=CC(=O)NCC3CCCC3(C)C)cc2)n1` (centres undefined) yielded a melting point of 144 to 145 °C.
`O=c1[nH]nc(-c2ccccc2[N+](=O)[O-])o1` showed a melting point of 157 to 158 °C.
For `CC1=C(c2ccccc2)C(=O)N(C(C)(C)C(=O)Cc2cc(F)cc(F)c2)CO1`, the melting point was 76.5 to 77.5 °C.
`COC(C(=O)O)c1ccc2c(c1)C(C)(C)CCC2(C)C` (racemic) gave a melting point of 135 to 136 °C.
`CN1CCN(c2cc(Cl)cc3c2c(=O)n(Cc2cccc(Br)c2)c(=O)n3Cc2ccccc2)CC1` gave a melting point of 154 to 157 °C.
With `O=C(c1ccccc1)c1cnn2c(-c3cccnc3)ccnc12` the melting point was 202 to 203 °C.
For `CC(C)C[C@H](NC(=O)C12CC3CC(CC(C3)C1)C2)C(=O)NCC(N)=O`, the melting point was 123 to 127 °C.
Work on `CC(=O)N1CCN(c2c(F)cc3c(=O)c(C(=O)O)cn(C4CC4)c3c2C)CC1C` (centres undefined) yielded a melting point of 219 to 221 °C.
Molecule `COc1ccc(C#Cc2cc3ncc(C#N)c(Nc4cc(OC)c(Cl)cc4Cl)c3s2)cc1` has a melting point of 249 to 250 °C.
In the case of `COc1cc(OC)c(-c2ccc(O)c(C34CC5CC(CC(C5)C3)C4)c2)cc1C=C1SC(C2CCNC2)=NC1=O` (centres undefined), the melting point is reported as 343 to 345 °C.
Work on `Cc1c(NC(=O)c2ccc(-c3ccc(F)cc3)cc2F)ccc2cc(CN3CCCC3)cnc12` yielded a melting point of 176 to 178 °C.
Work on `CC(=O)Nc1cccc(C2=CCNc3c(C#N)cnn32)c1` yielded a melting point of 251 to 254 °C.
With `O=C1CC[C@@H](CI)N1Cc1ccccc1` the melting point was 92 to 94 °C.
`CN1C(=S)N(c2ccc(C#N)c(C(F)(F)F)c2)C(=O)C1(CO)CO` showed a melting point of 169 to 170 °C.
Molecule `Cc1ccccc1Sc1c(O)cc(-c2ccccc2)oc1=O` has a melting point of 210 to 211 °C.
`O=S(=O)(NCc1ccccc1)c1cccc(-c2cc(-c3nc(-c4ccc(C(F)(F)F)cc4)cc(C(F)(F)F)n3)ccn2)c1` gave a melting point of 202 °C.
With `CN1C(=O)Cc2ccc(F)cc21` the melting point was 100 to 101 °C.
For `CC(=O)Oc1c(C(C)(C)C)cc(C=O)cc1C(C)(C)C`, the melting point was 65.2 to 74.5 °C.
Work on `Clc1ccc2c(Nc3ccc(CNC4CCN(Cc5ccccc5)CC4)cc3)ccnc2c1` yielded a melting point of 160 to 164 °C.
With `Nc1nc(F)cc(OCc2ccccc2)n1` the melting point was 96 to 98 °C.
In the case of `Ic1ccc2c(c1)Sc1ccc(I)cc1S2`, the melting point is reported as 169 to 170 °C.
Molecule `CCNC(=O)[C@H]1N(C(=O)[C@@H](O)[C@H](Cc2ccccc2)NC(=O)c2cc(C)cc(O)c2C)CC(F)(F)C1(C)C` has a melting point of 208 to 214 °C.

Source: a melting point compilation (Tetko et al.; mined from patent text by program, amines drawn as free bases though some values may be those of a salt)
